Holding throughout (assay): fluorescent GTP concentration effect on GTPase potency – biochemical, four GTPases, bead flow cytometry, mechanism study, profiling panel (AID 743330)
Holding throughout (conditions): bead-based flow cytometry, fluorescent GTP binding to GTPases
On the technique in general: A flow cytometer gives signals particle by particle.

Assay [1] concerns the target Cdc42 mutant.
Assay [2] deals with Ras.
In assay [3] the target is Cdc42.
Assay [4] addresses Rab7.

As a reminder, the EC50 is the concentration at which the effect is half-maximal. `CC1(C)Cc2c(sc(NC(=S)NC(=O)c3ccc(F)cc3)c2C(=O)O)CO1`: the EC50 is 120 nM in assay [1] (EC50 at 25 nM fluorescent GTP); 977 nM in assay [1] (EC50 at 100 nM fluorescent GTP); 66 nM in assay [2] (EC50 at 25 nM fluorescent GTP); 444 nM in assay [2] (EC50 at 100 nM fluorescent GTP); 248 nM in assay [3] (EC50 at 25 nM fluorescent GTP); 1040 nM in assay [3] (EC50 at 100 nM fluorescent GTP). For the same compound, the EC50 in assay [4] (EC50 at 25 nM fluorescent GTP) turned out to be 55 nM; in assay [4] (EC50 at 100 nM fluorescent GTP), 479 nM.

On to `CCC1(C)Cc2c(sc(NC(=S)NC(=O)c3ccccc3)c2C(=O)O)CO1` (stereo not given), for which the EC50 in assay [1] (EC50 at 25 nM fluorescent GTP) came out at 12 nM; in assay [1] (EC50 at 100 nM fluorescent GTP), 27 nM; in assay [2] (EC50 at 25 nM fluorescent GTP), 6 nM; in assay [2] (EC50 at 100 nM fluorescent GTP), 23 nM; in assay [3] (EC50 at 100 nM fluorescent GTP), 20 nM; in assay [4] (EC50 at 25 nM fluorescent GTP) it was 8 nM. This compound registered an EC50 in assay [4] (EC50 at 100 nM fluorescent GTP) of 29 nM.

The record behind these values is PubChem BioAssay AID743330 (NMMLSC, 2014).
